We go through one compound from patent US12569448B2, “Membrane-based two component therapeutic gas release system for oral administration” (Julius-Maximilians-Universitaet Wuerzburg, priority 2019, dated 2026).

The nature of this data set: CO release rates from free CORM and OCORS systems. Type of data set: physicochemical. The procedure:
This example illustrates the influence of the wall thickness of the silicone membrane on the release rate of the therapeutic gas.
The trigger compounds FeCl3 and Na2SO3 were used in aqueous solution and in molar excess amounts relative to the CORM.
In Table 1, Cmax describes the highest value measured for the therapeutic gas concentration. Tmax is the time, at which this value was measured. 090% describes 90% of Cmax, and T90% is the time point, at which 90% of Cmax were released. For the free metal carbonyl, a different release vessel was used than for the CO releasing systems, and therefore, the absolute values for Cmax differ.

The mark [1] stands for this setting: trigger in aqueous solution in molar excess.

For `[C-]#[N+]CC(=O)O.[C-]#[N+]CC(=O)O.[C-]#[N+]CC(=O)O.[C-]#[O+].[C-]#[O+].[C-]#[O+].[Mo]` [Entry 1, Mo(CO)3(CNCH2CO2H)3], the “C90% (90% of Cmax)” value (free carbonyl measured in a different release vessel) came out at 576.7 ppm. Also, under setting [1], the “T90% (time point at which 90% of Cmax were released)” value is given as 17 min and the “Tmax (time at which Cmax was measured)” value worked out at 44 min. The “Cmax (highest value measured for the therapeutic gas concentration)” value (trigger in aqueous solution in molar excess, free carbonyl measured in a different release vessel than the OCORS systems) was 640.8 ppm.
